Data published in ChEMBL document CHEMBL3046237, “Efficacy of methyl nonyl ketone as an in-soil repellent for common voles (Microtus arvalis)” (2013).
Calls of active or inactive are those of the source. The rule behind the calls is not given here.

Assays:
Microtus arvalis [1] = test: In-soil repellent activity against Microtus arvalis (Common vole) in forage grassland assessed as decrease in number of active burrow entrances at 3.97% ai applied as foam in field measured after 6 days of treatment relative to untreated control; assay type: functional
Microtus arvalis [2] = test: Decrease in reopening of compound treated burrow entrances in forage grassland by Microtus arvalis (Common vole) assessed as increase in number of new burrow entrances at 3.97% ai applied as foam in field (reference value: 41 +/-21.1%); assay type: functional; design: scale not given: the % may be the effect or the level left
Microtus arvalis [3] = test: Decrease in reopening of compound treated burrow entrances in forage grassland by Microtus arvalis (Common vole) assessed as increase in number of new burrow entrances at 3.97% ai applied as foam in field measured after 5 days of treatment (reference value: 40 +/-19.4%); assay type: functional; design: scale not given: the % may be the effect or the level left
Microtus arvalis [4] = test: In-soil repellent activity against Microtus arvalis (Common vole) in forage grassland assessed as decrease in number of active burrow entrances at 3.97% ai applied as foam in field measured after 3 days of treatment; assay type: functional, organism-based
Microtus arvalis [5] = test: In-soil repellent activity against Microtus arvalis (Common vole) in forage grassland assessed as decrease in number of active burrow entrances at 3.97% ai applied as foam in field measured after 4-5 days of treatment; assay type: functional, organism-based
Microtus arvalis [6] = test: In-soil repellent activity against Microtus arvalis (Common vole) in forage grassland assessed as decrease in number of active burrow entrances at 3.97% ai applied as foam in field measured after 24 hr relative to control; assay type: functional
Microtus arvalis [7] = test: In-soil repellent activity against Microtus arvalis (Common vole) in forage grassland assessed as decrease in number of active burrow entrances at 3.97% ai applied as foam in field for 3 days measured on day 10; assay type: functional, organism-based
Microtus arvalis [8] = test: In-soil repellent activity against Microtus arvalis (Common vole) in forage grassland assessed as decrease in number of active burrow entrances at 3.97% ai applied as foam in field measured after 48 hr relative to control; assay type: functional
Microtus arvalis [9] = test: In-soil repellent activity against Microtus arvalis (Common vole) in forage grassland assessed as decrease in number of active burrow entrances at 3.97% ai applied as foam in field for first 3 days and reapplied on day 10 measured at 24 hr after last drug dosage; assay type: functional, organism-based
Microtus arvalis [10] = test: In-soil repellent activity against Microtus arvalis (Common vole) in forage grassland assessed as decrease in number of active burrow entrances at 3.97% ai applied as foam in field for first 3 days and reapplied on day 10 measured on day 14; assay type: functional, organism-based
Microtus arvalis [11] = test: In-soil repellent activity against Microtus arvalis (Common vole) in forage grassland assessed as decrease in number of active burrow entrances at 3.97% ai applied as foam in field measured after 6 days of treatment (reference value: 48 +/-12%); assay type: functional
Microtus arvalis [12] = test: In-soil repellent activity against Microtus arvalis (Common vole) in forage grassland assessed as decrease in number of active burrow entrances at 3.97% ai applied as foam in field for 3 days measured on day 7; assay type: functional, organism-based

With `CCCCCCCCCC(C)=O` [METHYL NONYL KETONE] the “fold change (FC)” value (Microtus arvalis [1]) was 2, the Activity (Microtus arvalis [2]) was 73% and the Activity (Microtus arvalis [3]) was 95%. For the same compound, the inhibition (Microtus arvalis [4]) was “Active”, the inhibition (Microtus arvalis [5]) was “Active” and the “fold change (FC)” value (Microtus arvalis [6]) was 3. The inhibition (Microtus arvalis [7]) was “inactive”, the “fold change (FC)” value (Microtus arvalis [8]) was 2 and the inhibition (Microtus arvalis [9]) was “Active”. The inhibition (Microtus arvalis [10]) was “Active”, the “inhibition (INH)” value (Microtus arvalis [11]) was 92% and the inhibition (Microtus arvalis [12]) was “Active”.
